“Also recorded” adds a separate entry of the source.
Experiments:
[1] = system: murine embryonic stem cells; assay type: cell-based
Experimental: At day 12, the number of contracting EB outgrowths (Panel A) and extension of beating area (Panel B) were detrmined by morphometry. The results were plotted as percentages of the total EBs counted in each well and shown as the mean ±SD for each of the 3 separate experiments. *, P<0.05 vs untreated control; #, P<0.05 vs simvastatin-treated control.
The murine ESC (mESC) line CCE was obtained from American Type Culture Collection (ATCC, Rockville, Md.). Murine ESCs were cultured without feeder cells in Dulbecco's modified Eagle's medium supplemented with 10% ESC-qualified Fetal Bovine Serum (FBS) (Stem Cell Technologies, Vancouver, Va.), pyruvate (Stem Cell Technologies, stock solution diluted 1:100), 2 mM L-glutamine, nonessential amino acids (Stem Cell Technologies, stock solution diluted 1:100), 100 IU/mL penicillin, 0.1 mg/mL streptomycin, and leukemia inhibitory factor (LIF) (Stem Cell Technologies). To induce differentiation, EBs were formed from undifferentiated mESCs in hanging drops of 400 cells in 20 μL of medium without LIF. After 5 days in suspension, EBs were plated on gelatin-coated dishes and cultured in cardiomyocyte-differentiation medium (Iscove's modified Eagle's medium, supplemented with 15% FBS, 2 mM L-glutamine, 5×10^−5 M β-mercaptoethanol, nonessential aminoacids, 100 IU/mL penicillin, 0.1 mg/mL streptomycin).
Statin Treatment. […] The inhibition of endogenous cholesterol synthesis was the mechanism used for analyzing the effect of endogenous cholesterol depletion on EB differentiation. By days 8 through 12 after plating, spontaneously contracting cell clusters could be observed within the EB outgrowths. Culture media from both simvastatin-treated and untreated cells were changed each day after day 3.
Spontaneous cardiac differentiation of mouse embryonic stem cells (mESCs) was assessed in vitro as the presence of rhythmically beating […] (EB) outgrowth. […] Thereafter, EB outgrowths were counted periodically under the inverted microscope equipped with a digital video camera, to determine whether or not they contained beating foci at different time points (days 3, 5, 7, 10, 12, and 14). At approximately day 7, contracting areas began to appear. […] Concomitant with the increased number of beating EBs, the size of the beating area for simvastatin-treated EBs increased 2-fold (evaluated at day 12) compared to that of untreated control EBs, a significant augmentation (p<0.05) (FIG. 22B).

[2] = system: H9c2 embryonic myoblasts; assay: Immunoblotting for Bad, Bcl-xL and PCNA in H9c2 embryonic myoblasts with IL-1; assay type: cell-based, rat; details: L-mevalonate added to simvastatin + IL-1
Experimental: Quantitation of protein bands was achieved by densitometry (Panels D, E and F, bottom). β-Tubulin staining of stripped blots was used as a control. […] PCNA, proliferating cell nuclear antigen; IL-1, interleukin-1-α; iNOS, inducible nitric oxide synthase; MnSOD, manganese superoxide dismutase.
(§1) The rat embryonic myogenic cell line H9c2 was commercially obtained from ATCC and maintained in Dulbecco's modified Eagle's medium (GIBCO) supplemented with 10% FBS at 37° C. in 95% air and 5% CO2.
(§2) Immunoblotting. Total proteins were isolated from rat cardiac myoblasts (H9c2 cells) or embryonic stem cells in an ice-cold lysis buffer containing 10 mmol/L Tris (tris(hydroxymethyl)aminomethane) (pH 7.4), 1% sodium dodecyl sulfate (SDS) and 1× protease inhibitor (1 mmol/L sodium orthovanadate). Proteins (15 μg/lane) were separated under the reducing conditions (125 mM Tris pH 6.8, 4% SDS, 10% glycerol, 0.006% bromophenol blue, 2% β-mercaptoethanol) by electrophoresis onto 5-10% SDS-polyacrylamide gel and electro-blotted to nitrocellulose membranes (Osmonics, Westborough, Mass.). The membranes were reversibly stained with Ponceau red (Sigma) to verify equal protein loading and/or transfer. […] Intensity of each immunoreactive protein band was quantified by densitometric analysis. […]

[3] = system: iNOS; assay: Nitrite production (Griess reaction) in H9c2 cardiac myoblasts; assay type: cell-based, rat; details: added to simvastatin + IL-1α 20 ng/mL
Experimental: Cell cultures. H9c2 cells purchased from American Type Culture Collection (ATCC, Rockville, Md.) are spontaneously immortalized ventricular myoblasts from the rat embryo, with preservation of several electrical and biochemical characteristics found in adult cardiomyocytes. […] After certain time intervals, 100 μL/well culture media were collected for determination of nitrite production. Assay for NO Production. The activity of iNOS was determined in the culture medium by assaying nitrites, taken as an index of NO production, using the Griess reagent (1% sulphanilic acid and 0.1% N-[1-naphtyl] ethylenediamine-HCl in 5% phosphoric acid) as reported previously (4,18,19). Equal volumes of medium and Griess reagent were mixed, and the purple products quantified spectrophotometrically at 550 nm. Nitrite concentrations were determined from a linear standard curve constructed with known concentrations of sodium nitrite (0 to 40 μmol/L nitrite). Nitrite Assays. Nitrite, a stable end-product of nitric oxide, was measured by using Griess reagent (1% sulphanilic acid and 0.1% N-[1-naphtyl] ethylenediamine-HCl in 5% phosphoric acid). Equal volumes of medium and Griess reagent were mixed, and the resulting purple product quantified by spectrophotometric assay at 550 nm. Nitrite concentrations were calculated from a linear standard curve constructed with known concentrations of sodium nitrite (0-14 μmol/L nitrite) (19).

[4] = system: NF-κB p65/RelA; assay: Immunoblotting for p65/RelA subunit of NF-κB, total cellular or nuclear proteins of H9c2 cells; assay type: cell-based, rat; details: simvastatin + IL-1α + L-mevalonate
[5] = system: iNOS; assay: Immunoblotting for iNOS protein in cytokine-stimulated H9c2 cardiac myoblasts; assay type: cell-based, rat
Experimental: Cell cultures. H9c2 cells purchased from American Type Culture Collection (ATCC, Rockville, Md.) are spontaneously immortalized ventricular myoblasts from the rat embryo, with preservation of several electrical and biochemical characteristics found in adult cardiomyocytes. They were cultured in DMEM medium (ATCC) supplemented with 10% heat-inactivated fetal bovine serum (FBS) in 95% air and 5% CO2 at 37° C. […] After certain time intervals, 100 μL/well culture media were collected for determination of nitrite production.
Immunoblotting. Total proteins were isolated from rat cardiac myoblasts (H9c2 cells) or embryonic stem cells in an ice-cold lysis buffer containing 10 mmol/L Tris (tris(hydroxymethyl)aminomethane) (pH 7.4), 1% sodium dodecyl sulfate (SDS) and 1× protease inhibitor (1 mmol/L sodium orthovanadate). Proteins (15 μg/lane) were separated under the reducing conditions (125 mM Tris pH 6.8, 4% SDS, 10% glycerol, 0.006% bromophenol blue, 2% β-mercaptoethanol) by electrophoresis onto 5-10% SDS-polyacrylamide gel and electro-blotted to nitrocellulose membranes (Osmonics, Westborough, Mass.). The membranes were reversibly stained with Ponceau red (Sigma) to verify equal protein loading and/or transfer. After blocking in Tris-buffered saline (0.2 M Tris and 8% NaCl) containing 5% non-fat powdered milk and 0.1% Tween 20 for 1 hour at room temperature, the membranes were incubated overnight at 4° C. with following primary antibodies to (a) iNOS (Transduction Laboratories, Lexington, Ky.; BD Biosciences); (b) NF-κB p65/rel (Santa Cruz Biotechnologies, Santa Cruz, Calif.); (c) ser^32-phosphorylated inhibitor IκBα (Santa Cruz); (d) Bad (BD Biosciences, San Jose, Calif.); (e) Bcl-xL (BD Biosciences); (f) proliferating cell nuclear antigen (PCNA; BC Biosciences); (g) ryanodine receptor (Santa Cruze Biotechnology, Inc., Santa Cruz, Calif.); (h) α-sarcomeric actinin (Sigma); (i) myocardin A (developed by immunizing rabbits with a synthetic myocardin A peptide); (j) Tie-2 (Santa Cruz); (k) manganese superoxide dismutase (Santa Cruz); and (1) β-tubulin (Sigma). The blots were incubated with horseradish peroxidase-coupled secondary antibodies, washed and developed by using a SuperSignal West Pico Chemiluminescent Substrate Kit (Pierce, Rockford, Ill.). Intensity of each immunoreactive protein band was quantified by densitometric analysis. Cytokine-stimulated RAW 264.7 cells (Transduction Laboratories, Lexington, Ky.) were used as positive controls.

[6] = system: H9c2 embryonic myoblasts; assay: Apoptosis assay (acridine orange and ethidium bromide) in H9c2 embryonic myoblasts; assay type: cell-based, rat; details: mevalonate 10^−4 mol/l with IL-1 + simvastatin
Experimental: The cells were exposed with IL-1αSimvastatin for 24 hours and then stained with two fluorochromes: acridine orange and ethidium bromide. Living (green fluorescence) and apoptotic (red fluorescence) cells were identified and counted with an Olympus fluorescence microscope connected to a computer imaging station.
as §1
Assays for Apoptosis. Analysis of apoptotic cells was performed by fluorescent microscopy with fluorochromes acridine orange and ethidium bromide (Sigma), as described previously (19). Apoptotic cells were discernible by their condensed, fragmented nuclei stained with both fluorochromes and were counted under a fluorescence microscope (Olympus, Center Valley, Pa.) connected to a computer imaging analysis station.

[7] = system: iNOS; details: cited from earlier work
[8] = injected subcutaneously over the calvaria of mice; cited from earlier work
[9] = system: iNOS; details: lovastatin pretreatment; cited from earlier work
[10] = system: Rho kinase; details: cited from earlier work
[11] = orally administered to rats; cited from earlier work
[12] = system: NF-κB; details: cited from earlier work
[13] = system: IκBα; assay: Immunoblotting for ser32 phosphorylated IκBα in H9c2 cells; assay type: cell-based, rat; details: 24 h
Experimental: Immunoreactive bands were quantified by densitometry (Panel B).
as §2

In the case of `CC(O)(CCO)CC(=O)O` [L-mevalonate], the “cytotoxicity in EBs” value [1] was “without any cytotoxicity”, the “contracting EBs in the absence of simvastatin” value ([1]; L-mevalonate alone) was “no or little effect on contracting EBs” and the “effect on the simvastatin effect on Bcl-xL” value [2] was “reversed the statin effect”. For the same molecule, the “effect on nitrite production in cells treated with simvastatin plus IL-1α” value [3] was “significantly increased the nitrite concentrations”, the “nuclear p65/rel protein levels in statin-treated, cytokine-stimulated cells” value [4] was “could elevate the nuclear p65/rel protein levels” and the “effect on simvastatin inhibition of cytokine-induced iNOS protein expression” value ([5]; H9c2, added to simvastatin + IL-1α or TNF-α) was “reversibly blocked; also recorded: blocks the simvastatin inhibitory effect; also recorded: diminished the inhibitory effect of simvastatin”. For the same molecule, the “cytokine-induced iNOS protein expression in the absence of simvastatin” value ([5]; H9c2, cytokine-stimulated, no simvastatin) was “no or little effect on cytokine-induced iNOS expression” and the “effect on the simvastatin cytoprotective effect” value [6] was “diminished”.

In the case of `CC[C@H](C)C(=O)O[C@H]1C[C@@H](C)C=C2C=C[C@H](C)[C@H](CC[C@@H]3C[C@@H](O)CC(=O)O3)[C@H]21` [lovastatin], the “iNOS and cytokine expression” value ([7]; rat macrophages, astrocytes, and microglia) is listed as “inhibits iNOS and cytokine expression”, the “LPS-induced iNOS expression” value ([7]; rat primary astrocytes) is listed as “blocks LPS-induced iNOS expression” and the bone formation [8] is listed as “increase bone formation”. The “IL-1beta induction of iNOS” value [9] was “superinduction of iNOS”, the Rho kinase activity [10] was “inhibit the Rho kinase activity” and the cancellous bone volume [11] was “increased cancellous bone volume”.

In the case of `CC[C@H](C)C(=O)O[C@H]1CCC=C2C=C[C@H](C)[C@H](CC[C@@H]3C[C@@H](O)CC(=O)O3)[C@H]21` [mevastatin], the “NF-κB activity and NF-κB-dependent VCAM and E-selectin expression” value [12] is listed as “inactivate NF-κB and reduce NF-κB-dependent expression of the endothelial adhesion proteins”.

In the case of `CCC(C)(C)C(=O)O[C@H]1C[C@@H](C)C=C2C=C[C@H](C)[C@H](CC[C@@H]3C[C@@H](O)CC(=O)O3)[C@H]21` [simvastatin], the “size of the beating area, increase compared to untreated control EBs” value ([1]; day 12) was 2 fold, the “percentage of beating EB outgrowths” value ([1]; day 12, simvastatin, untreated control 18±0.1%) was 42±0.1% and the “lowest concentration achieving the inhibitory effect on iNOS expression” value ([5]; H9c2, cytokine-stimulated) was 10^−8 mol/L. For the same molecule, the “concentration giving the highest levels of phosphorylated IκBα” value [13] was 10^−7 mol/L.

Reference: patent US20070190651A1, “Myogenic Development and Protection of Stem Cells Against Inflammation and Apoptosis By Statins and Isoprenoid Pathway Inhibitors” (Board of Regents of the University of Texas System, priority 2006, published 2007)
